Laboratory results as given in patent US10414721B1, “Inhibitor of endocannabinoid cellular reuptake” (University of Bern, priority 2018, dated 2019).

Assays:
[1] = test system: BALB/c mice; test: Acetic acid-induced writhing test; format: in vivo, mouse; details: 5 and 10 mg/kg
Experimental: WOBE437 was initially assessed in a battery of four individual tests typically associated with CB1 receptor activation in mice (nociception, locomotion, body temperature and cataleptic behavior), collectively referred to as the “tetrad”. Dose-response experiments identified 10 mg/kg as the lowest dose to elicit a moderate but complete tetrad in BALB/c mice upon intraperitoneal (i.p.) administration (FIGS. 3A-D). […] To assess whether the WOBE437-induced effects were CB1 receptor-mediated, mice were pre-treated with the selective antagonist/inverse agonist rimonabant (SR1). […] These experiments provided a proof-of-concept for the mechanism of action of WOBE437 as a novel “indirect CB1 receptor agonist”. In subsequent studies, the effects of WOBE437 in pain, inflammatory and anxiety models were investigated. […] Both effects were reversed by SR1.
WOBE437 and RX-055 were tested in independent laboratories, in different mouse strains and in multiple (behavioral) models for cannabimimetic, analgesic, anti-inflammatory and anxiolytic-effects in wild-type and phenotypical CB1-KO mice as described in Chicca 2017.

[2] = molecular target: CB1 receptor (Homo sapiens, UniProt P21554); test: CB1 receptor binding assay
Experimental: (§1) CB1 and CB2 receptor binding assays [^35S]GTPγS assays were performed as previously described. WOBE437 was profiled in more detail in an extended CNS adverse drug reaction screening panel (CEREP).

[3] = Cell penetration (intracellular LC-MS/MS and PAMPA); format: in vitro ADME
From the text: Cell penetration was further investigated by quantifying intracellular levels of WOBE437 by LC-MS/MS and measuring its physicochemical distribution in the parallel artificial membrane permeability assay (PAMPA).

[4] = 14C-WOBE437 saturation binding to mouse brain membranes; details: binding kinetics, high affinity site; read-out: affinity for membrane binding site
Experimental: In addition to their effects on AEA uptake, the inhibition of FAAH was thoroughly investigated for all nanomolar inhibitors. […] The lack of significant FAAH inhibition by WOBE437 was established in different assay systems using human recombinant enzyme, cell and brain homogenates. […] Importantly, WOBE437 (1 μM) inhibited AEA uptake also in primary mouse cortical neurons by 50% after 2-7 min of incubation with a smaller inhibition (20-35%) upon longer incubation (10-20 min, FIG. 1F). […] In Neuro2a cells, incubation with WOBE437 (5 μM) for 2 and 5 min reduced overall uptake by 40%. (FIG. 1G). […] Then cells were treated with radiolabeled ^14C-WOBE437 to investigate the cellular penetration of the compound. In U937 cells, the vast majority of the radioactive signal was collected in the extracellular and membrane-bound fractions (75-90%), with negligible amounts (5-9%) detected in the intracellular fraction (FIGS. 2A-D). […] In order to further investigate this point, ^14C-WOBE437 was applied to membrane preparations generated in-house from mouse brain and U937 cells. […] The Kd values are in line with the IC50 values shown in the functional AEA uptake assays in Neuro2a and U937 cells (FIGS. 1C and 1D). In further experiments, 10 nM of ^14C-WOBE437 was co-incubated with different concentrations of AEA and U937 membranes. […] Furthermore, the endocannabinoids AEA and noladin ether and the AEA uptake inhibitor OMDM-2 could compete with ^14C-WOBE437 binding in brain and U937 membranes. […] Secondary plots of the slope (Kmapp/Vmaxapp vs. [WOBE437]) and intercept (1/Vmaxapp vs. [WOBE437]) confirmed the competitive inhibition of AEA uptake.

[5] = test system: 2-AG uptake in Neuro2a cells; test: 2-AG uptake and hydrolysis in Neuro2a cells; format: cell-based, mouse
Experimental: All radioactivity-based AEA and 2-AG uptake and release assays performed in U937, and HMC-1 cells were carried out using two different assay formats as previously reported. AEA and 2-AG uptake assay in Neuro2a and primary mouse cortical neurons were performed with a different method disclosed in Chicca 2017.

[6] = molecular target: T1, MAGL (Mus musculus, UniProt O35678); test: MAGL activity (ABPP and radioactivity-based hydrolytic assays); format: biochemical; details: ABPP in mouse brain homogenate and hydrolytic assays
T1 construct: membrane preparations obtained from mouse brains; from tissue; host or cells: mouse brain membranes
Experimental: (§2) ABPP experiments were performed using membrane preparations obtained from mouse brains as described earlier.
(§3) FAAH, ABHDs, MAGL and COX-2 activity assays were performed using cell homogenates, human recombinant enzymes and mouse, rat and pig brain homogenates as previously described.

[7] = test system: cell lines and human whole blood; test: NAE levels in cell lines and human whole blood; format: cell-based
From the text: WOBE437, AEA, 2-AG, other lipids and hormones were quantified by LC-MS/MS in different biological matrices (cells, human whole blood, rodent tissues) as reported in Chicca 2017.

[8] = Microsomal clearance, mouse liver microsomes; format: in vitro ADME
Experimental: Human or mice microsome clearance experiment were carried out as according to a previously describe protocol. Briefly, microsome preparation (0.5 mg/mL) plus cofactor NADPH solution was incubated with 1 μM of WOBE437 in 96-well plates at 37° C. After 1, 3, 6, 9, 15, 25, 35 and 45 min, 40 μL of the preparation was transferred and quenched with 3:1 (v/v) acetonitrile containing internal standards. Samples were then cooled and centrifuged before analysis by LC-MS/MS. Log peak area ratios (test compound peak area/internal standard peak area) are plotted against incubation time using a linear fit. The calculated slope is used to determine the intrinsic clearance. Data are obtained from single experiments measured with multiple time-points.

[9] = molecular target: T2, ABHD6 (Mus musculus, UniProt Q8R2Y0); test: ABHD6 activity (ABPP and radioactivity-based hydrolytic assays); format: biochemical; details: ABPP in mouse brain homogenate and hydrolytic assays
T2 construct: membrane preparations obtained from mouse brains; from tissue; host or cells: mouse brain membranes
Experimental: as §2, §3

[10] = test system: 45 CNS-related receptors; test: CNS adverse drug reaction screening panel (CEREP); format: binding; details: including cannabinoid receptors
Experimental: as §1

T2 sequence (Q8R2Y0 whole entry): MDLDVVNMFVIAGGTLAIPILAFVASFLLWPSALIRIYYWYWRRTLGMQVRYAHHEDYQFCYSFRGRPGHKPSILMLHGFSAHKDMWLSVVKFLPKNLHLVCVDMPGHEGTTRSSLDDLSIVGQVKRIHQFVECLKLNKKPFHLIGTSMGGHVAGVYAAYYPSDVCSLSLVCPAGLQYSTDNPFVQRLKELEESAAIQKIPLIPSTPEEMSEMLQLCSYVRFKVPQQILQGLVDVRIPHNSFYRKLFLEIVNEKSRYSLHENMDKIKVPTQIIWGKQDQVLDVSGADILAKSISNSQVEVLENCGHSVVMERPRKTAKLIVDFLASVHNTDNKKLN
Sequence of CB1 receptor (P21554 whole entry): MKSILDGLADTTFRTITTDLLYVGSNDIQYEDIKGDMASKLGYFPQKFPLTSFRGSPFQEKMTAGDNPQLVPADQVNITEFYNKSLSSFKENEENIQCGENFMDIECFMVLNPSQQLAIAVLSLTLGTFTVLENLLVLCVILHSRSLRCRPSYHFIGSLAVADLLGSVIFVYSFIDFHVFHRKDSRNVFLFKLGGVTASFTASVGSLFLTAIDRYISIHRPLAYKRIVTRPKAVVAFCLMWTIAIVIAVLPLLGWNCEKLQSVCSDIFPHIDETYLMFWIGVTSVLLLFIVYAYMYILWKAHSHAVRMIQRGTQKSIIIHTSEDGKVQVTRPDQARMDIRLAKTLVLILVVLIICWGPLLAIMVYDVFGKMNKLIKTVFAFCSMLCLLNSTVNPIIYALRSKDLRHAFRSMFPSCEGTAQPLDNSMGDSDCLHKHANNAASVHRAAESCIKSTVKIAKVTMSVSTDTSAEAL
T1 sequence (O35678 whole entry): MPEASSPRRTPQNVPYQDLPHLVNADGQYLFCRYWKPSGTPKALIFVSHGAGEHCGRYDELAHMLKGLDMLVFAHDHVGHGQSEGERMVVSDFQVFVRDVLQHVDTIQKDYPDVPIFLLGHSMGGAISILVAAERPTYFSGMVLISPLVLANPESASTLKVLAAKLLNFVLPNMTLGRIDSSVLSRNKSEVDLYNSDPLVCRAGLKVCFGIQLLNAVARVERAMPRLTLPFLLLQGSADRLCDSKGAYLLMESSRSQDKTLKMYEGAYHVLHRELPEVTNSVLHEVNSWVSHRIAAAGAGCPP

CCCCCCC/C=C/C=C/C(=O)NCCc1ccc(OC)c(OC)c1 [WOBE437, (2E,4E)-N-[2-(3,4-Dimethoxyphenyl)ethyl]dodeca-2,4-dienamide]
abdominal stretches in the acetic writhing test [1]: reduced number of abdominal stretches
Ki [2]: 17 µM
cell membrane penetration [3]: does not significantly penetrate cell membranes
Kd [4]: 0.01 to 0.02 µM
reduction of overall 2-AG uptake ([5]; 5 μM, 2 and 5 min incubation): 40%
effect on 2-AG uptake and hydrolysis ([5]; Neuro2a cells, time course): only inhibited 2-AG uptake but not hydrolysis
inhibition of MAGL [6]: did not inhibit
levels of other NAEs [7]: without altering the levels of other NAEs
clearance ([8]; 1 μM, preliminary): 0.174 mL/min/kg
bioavailability at 1 μM ([8]; mouse, mice, from microsomal clearance, read-out: estimated maximal bioavailability): 17%
inhibition of ABHD6 [9]: did not inhibit
interaction with 45 CNS-related receptors [10]: did not exhibit any significant interaction
